Results reported in ChEMBL document CHEMBL1137578, “Small molecules block the polymerization of Z alpha1-antitrypsin and increase the clearance of intracellular aggregates” (2007).
Each block holds one compound with its values, some of them ahead of it. Calls of active or inactive are those of the source. No cut-off for these calls is given here.

What was measured:
Homo sapiens [1] = species on record: Homo sapiens; experiment: Inhibition of polymerization of alpha-1-antitrypsin Z mutant at 10 uM
[2] = target: T1, Alpha-1-antichymotrypsin (Homo sapiens) (UniProt P01011); experiment: Inhibition of polymerization of alpha-1 antichymotrypsin at 200 uM
T1 sequence (whole entry): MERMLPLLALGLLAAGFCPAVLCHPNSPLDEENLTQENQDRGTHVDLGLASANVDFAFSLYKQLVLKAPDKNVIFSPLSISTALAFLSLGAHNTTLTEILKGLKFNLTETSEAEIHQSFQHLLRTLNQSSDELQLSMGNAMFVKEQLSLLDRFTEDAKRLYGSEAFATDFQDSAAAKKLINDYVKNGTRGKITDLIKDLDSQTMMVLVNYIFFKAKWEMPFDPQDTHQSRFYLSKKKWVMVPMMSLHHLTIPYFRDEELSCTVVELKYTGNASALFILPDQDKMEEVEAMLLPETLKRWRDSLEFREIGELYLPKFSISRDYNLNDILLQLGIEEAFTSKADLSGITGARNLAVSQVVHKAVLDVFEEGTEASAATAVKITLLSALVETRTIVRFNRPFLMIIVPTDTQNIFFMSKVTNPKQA

Homo sapiens [3] = species on record: Homo sapiens; experiment: Inhibition of polymerization of alpha-1-antitrypsin Z mutant at 50 uM
Homo sapiens [4] = species on record: Homo sapiens; experiment: Inhibition of polymerization of alpha-1-antitrypsin Z mutant at 20 uM
[5] = (§1) Reduction in intracellular accumulation of alpha-1 antitrypsin Z mutant in mouse Hepa1a cells at 100 uM after 16 hrs; format: functional; parameters: scale not given: the % may be the effect or the level left
Homo sapiens [6] = species on record: Homo sapiens; experiment: Inhibition of polymerization of alpha-1-antitrypsin Z mutant
Mus musculus = species on record: Mus musculus; experiment: as §1; format: functional
Homo sapiens [7] = species on record: Homo sapiens; experiment: Inhibition of polymerization of alpha-1-antitrypsin Z mutant at 5 uM

SMILES: Cc1cc(NS(=O)(=O)c2ccccc2)cc(Cl)c1O
Activity (Homo sapiens [1]): Active

SMILES: Cc1cc(S(=O)(=O)Nc2cc(C)c(O)c(C)c2)c(C)s1
Activity [2]: inactive | Activity (Homo sapiens [3]): Active | Activity (Homo sapiens [4]): Active | Activity [5]: 70%

SMILES: CSc1ccc(C(Nc2ccccn2)c2oc(CO)cc(=O)c2O)cc1 (configuration not stated)
Activity (Homo sapiens [6]): Active

SMILES: Cc1cc(NS(=O)(=O)c2cccc([N+](=O)[O-])c2)cc(C)c1O
Activity (Homo sapiens [1]): Active

SMILES: COc1c(C)cc(NS(=O)(=O)c2ccc(SC)cc2)cc1C
Activity (Mus musculus): inactive

SMILES: Cc1cc(NS(=O)(=O)c2ccccc2)cc(C)c1O
Activity (Homo sapiens [3]): Active

Further lines, with some results ahead:

Activity (Homo sapiens [1]): Active
SMILES: Cc1cc(NS(=O)(=O)c2ccc([N+](=O)[O-])cc2)cc(C)c1O

Activity (Homo sapiens [6]): Active
SMILES: NS(=O)(=O)c1ccc(Nc2nc(-c3ccc(O)cc3O)cs2)cc1

Activity (Homo sapiens [6]): Active
SMILES: COc1ccccc1Nc1ccc2c(O)cc(S(=O)(=O)O)cc2c1

Activity (Homo sapiens [6]): Active
SMILES: O=C1c2ccc(O)cc2OC(c2ccc(O)c(O)c2O)C1O (configuration not stated)

Activity (Homo sapiens [1]): Active
SMILES: Oc1ccc(-c2n[nH]cc2-c2cnn(-c3ccccc3)c2)c(O)c1O

Activity (Homo sapiens [1]): Active
SMILES: Oc1ccc(-c2n[nH]cc2-c2ccn(-c3ccccc3)n2)c(O)c1O

Activity (Homo sapiens [7]): Active | Activity (Homo sapiens [1]): Active
SMILES: Cc1cc(NS(=O)(=O)c2ccccc2)cc(Br)c1O

Activity (Homo sapiens [7]): Active | Activity (Homo sapiens [1]): Active
SMILES: Cc1ccc(S(=O)(=O)Nc2cc(C)c(O)c(Sc3nnc[nH]3)c2)cc1

Activity (Homo sapiens [7]): Active | Activity (Homo sapiens [1]): Active
SMILES: Cc1ccc(S(=O)(=O)Nc2cc(C)c(O)c(Sc3nnc(C)[nH]3)c2)cc1
Activity (Mus musculus): inactive
